Legend:
Details in all cases: 72 h
Caco-2 [1] = test: cell viability relative to DMSO; higher = less toxic
Calu-3 [2] = test: as above
HepG2 [3] = test: as above
U2OS [4] = test: as above
Vero E6 [5] = test: as above
Caco-2 [6] = test: relative viability EC50 (midpoint between 100% and the lowest measured viability); higher = less toxic
Calu-3 [7] = test: as above
HepG2 [8] = test: as above
U2OS [9] = test: as above
Vero E6 [10] = test: as above
Caco-2 [11] = test: drug sensitivity score (DSS) for viability; higher = more toxic; extreme values may be limits of the assay
Calu-3 [12] = test: as above
HepG2 [13] = test: as above
U2OS [14] = test: as above
Vero E6 [15] = test: as above

Row | Compound | cell viability (Caco-2 [1]; 1 nM) | cell viability (Caco-2 [1]; 10 nM) | cell viability (Caco-2 [1]; 100 nM) | cell viability (Caco-2 [1]; 1000 nM) | cell viability (Caco-2 [1]; 10000 nM) | cell viability (Calu-3 [2]; 1 nM) | cell viability (Calu-3 [2]; 10 nM) | cell viability (Calu-3 [2]; 100 nM) | cell viability (Calu-3 [2]; 1000 nM) | cell viability (Calu-3 [2]; 10000 nM) | cell viability (HepG2 [3]; 1 nM) | cell viability (HepG2 [3]; 10 nM) | cell viability (HepG2 [3]; 100 nM) | cell viability (HepG2 [3]; 1000 nM) | cell viability (HepG2 [3]; 10000 nM) | cell viability (U2OS [4]; 1 nM) | cell viability (U2OS [4]; 10 nM) | cell viability (U2OS [4]; 100 nM) | cell viability (U2OS [4]; 1000 nM) | cell viability (U2OS [4]; 10000 nM) | cell viability (Vero E6 [5]; 1 nM) | cell viability (Vero E6 [5]; 10 nM) | cell viability (Vero E6 [5]; 100 nM) | cell viability (Vero E6 [5]; 1000 nM) | cell viability (Vero E6 [5]; 10000 nM) | relative viability EC50 (Caco-2 [6]) | relative viability EC50 (Calu-3 [7]) | relative viability EC50 (HepG2 [8]) | relative viability EC50 (U2OS [9]) | relative viability EC50 (Vero E6 [10]) | drug sensitivity score (Caco-2 [11]) | drug sensitivity score (Calu-3 [12]) | drug sensitivity score (HepG2 [13]) | drug sensitivity score (U2OS [14]) | drug sensitivity score (Vero E6 [15])
1 | CN[C@H](C(=O)N[C@H](C(=O)N(C)[C@H](/C=C(\C)C(=O)O)C(C)C)C(C)(C)C)C(C)(C)c1ccccc1 [taltobulin] | 68.3% | 45.6% | 34.3% | 35% | 35.9% | 82.8% | 58.4% | 46.7% | 39.6% | 38.8% | 73.5% | 28.9% | 28.6% | 34.8% | 33.1% | 73.8% | 31.8% | 17.3% | 18.5% | 17.7% | 88.5% | 39.6% | 25.2% | 17.9% | 18.1% | 0.0011 µM | 0.0037 µM | 0.0012 µM | 0.0021 µM | 0.0044 µM | 29.8 | 24.3 | 35 | 36.3 | 33.4
2 | CCN1CCCC1CNC(=O)c1cc(S(=O)(=O)CC)c(N)cc1OC (stereo not given) [amisulpride] | 98.8% | 88.6% | 96.7% | 97.1% | 96.1% | 96.4% | 103% | 99.2% | 104% | 103% | 104% | 104% | 94.6% | 99.3% | 102% | 103% | 99.9% | 102% | 98.5% | 103% | 98.6% | 106% | 99.4% | 98.5% | 98.8% | > 10 µM | > 10 µM | > 10 µM | > 10 µM | > 10 µM | 0 | 0 | 0 | 0 | 0
3 | C[C@H](CCC(=O)O)[C@H]1CC[C@H]2[C@@H]3[C@H](O)C[C@@H]4C[C@H](O)CC[C@]4(C)[C@H]3C[C@H](O)[C@]12C [cholic-acid] | 93.3% | 92.3% | 95.3% | 100% | 93% | 87% | 91.1% | 88% | 99% | 96.9% | 112% | 97.5% | 96.3% | 94.2% | 102% | 97.3% | 100% | 93.5% | 102% | 96.5% | 102% | 102% | 100% | 100% | 99.4% | > 10 µM | > 10 µM | > 10 µM | > 10 µM | > 10 µM | 0 | 0 | 0 | 0 | 0
4 | O=c1cc(-c2ccccc2)oc2cc(O)cc(O)c12 [chrysin] | 99.4% | 86.9% | 102% | 91.9% | 94.4% | 94.5% | 92.9% | 106% | 91.7% | 102% | 88.5% | 102% | 93.5% | 100% | 104% | 98.4% | 97% | 101% | 97.4% | 99.2% | 92.5% | 102% | 87.9% | 94.8% | 111% | > 10 µM | > 10 µM | > 10 µM | > 10 µM | > 10 µM | 0 | 0 | 0 | 0 | 0
5 | C1CCN2C[C@@H]3C[C@@H](CN4CCCC[C@@H]34)[C@H]2C1 [sparteine-sulfate] | 84.7% | 87.4% | 81.4% | 78.5% | 105% | 114% | 104% | 108% | 116% | 86.7% | 94.9% | 101% | 102% | 89% | 102% | 105% | 99.7% | 104% | 97.6% | 100% | 97.4% | 98.7% | 82.1% | 93.6% | 105% | > 10 µM | > 10 µM | > 10 µM | > 10 µM | > 10 µM | 2.6 | 0 | 0 | 0 | 0
6 | C/C(=C(\CCOP(=O)(O)O)SC(=O)c1ccccc1)N(C=O)Cc1cnc(C)nc1N [benfotiamine] | 99.7% | 101% | 91% | 94.6% | 89.1% | 97.2% | 96.9% | 95.8% | 95.4% | 92.1% | 95.1% | 92.4% | 88.4% | 92.7% | 97% | 99.1% | 101% | 95.7% | 98.5% | 99.5% | 100% | 98.3% | 98.9% | 97.4% | 96.2% | > 10 µM | > 10 µM | > 10 µM | > 10 µM | > 10 µM | 0 | 0 | 0 | 0 | 0
7 | N#C[C@H](O[C@@H]1O[C@H](CO[C@@H]2O[C@H](CO)[C@@H](O)[C@H](O)[C@H]2O)[C@@H](O)[C@H](O)[C@H]1O)c1ccccc1 [amygdalin] | 98.4% | 104% | 110% | 92.8% | 104% | 99.2% | 105% | 93.3% | 109% | 107% | 100% | 98.8% | 104% | 101% | 96.6% | 96.9% | 105% | 100% | 104% | 101% | 101% | 103% | 96% | 95.5% | 102% | > 10 µM | > 10 µM | > 10 µM | > 10 µM | > 10 µM | 0 | 0 | 0 | 0 | 0
8 | CC(=O)Oc1cc(C(F)(F)F)ccc1C(=O)O [triflusal] | 96% | 106% | 90% | 98.4% | 103% | 98.6% | 97.9% | 93.5% | 92.2% | 103% | 90.6% | 90.5% | 92.1% | 101% | 111% | 96.2% | 102% | 99.5% | 97.9% | 101% | 99.4% | 96.9% | 97.7% | 100% | 94.5% | > 10 µM | > 10 µM | > 10 µM | > 10 µM | > 10 µM | 0 | 0 | 0 | 0 | 0
9 | Cc1cc(C)c(S(=O)(=O)Nc2ccccc2C(F)(F)F)c(C)c1 [o-3M3FBS] | 94.2% | 99.4% | 98.3% | 97.7% | 103% | 98.9% | 99.5% | 89.4% | 100% | 93.7% | 102% | 109% | 95.6% | 94.9% | 99.4% | 96.8% | 99.8% | 97.8% | 95.6% | 96.5% | 95.8% | 98.4% | 94.3% | 88.3% | 97.3% | > 10 µM | > 10 µM | > 10 µM | > 10 µM | > 10 µM | 0 | 0 | 0 | 0 | 0
10 | CC(C)(C)[C@]1(O)CCN2C[C@H]3c4ccccc4CCc4cccc(c43)[C@@H]2C1 [butaclamol] | 101% | 94.3% | 93.9% | 99.6% | 94.5% | 90% | 99.7% | 97.2% | 112% | 94.9% | 108% | 100% | 96.3% | 90% | 95.5% | 95.5% | 101% | 92% | 101% | 90.2% | 98.4% | 103% | 104% | 98% | 102% | > 10 µM | > 10 µM | > 10 µM | > 10 µM | > 10 µM | 0 | 0 | 0 | 0 | 0
11 | O=C(O)C1=CCCNC1 [guvacine] | 99.7% | 85.6% | 102% | 102% | 96.5% | 106% | 99% | 102% | 88.2% | 92.2% | 102% | 97% | 96.3% | 100% | 105% | 105% | 98.9% | 102% | 96.5% | 102% | 100% | 101% | 98% | 104% | 97.5% | > 10 µM | > 10 µM | > 10 µM | > 10 µM | > 10 µM | 0 | 0.4 | 0 | 0 | 0
12 | O=C1S/C(=C\c2ccc(OCc3cccc(B(O)O)c3)cc2)C(=O)N1Cc1ccc(F)cc1 [HA-130] | 93.4% | 96% | 97% | 97.6% | 92.8% | 95.2% | 110% | 99.6% | 105% | 93.7% | 102% | 98.7% | 94.8% | 101% | 103% | 95.6% | 97.5% | 94.7% | 98.7% | 90.6% | 95.5% | 97.2% | 103% | 91.9% | 93.4% | > 10 µM | > 10 µM | > 10 µM | > 10 µM | > 10 µM | 0 | 0 | 0 | 0 | 0
13 | N#C/C(=C\c1cn(-c2ccccc2)c2ccccc12)C(=O)O [UK-5099] | 98.1% | 106% | 100% | 94% | 104% | 106% | 90.1% | 106% | 93.1% | 106% | 105% | 101% | 101% | 97% | 95.7% | 98.5% | 98.8% | 95.4% | 103% | 106% | 98.1% | 102% | 99.7% | 99.8% | 101% | > 10 µM | > 10 µM | > 10 µM | > 10 µM | > 10 µM | 0 | 0 | 0 | 0 | 0
14 | CN(C)CC(=O)Nc1ccc2[nH]c(=O)c3ccccc3c2c1 [PJ-34] | 91.5% | 101% | 99.3% | 97.2% | 104% | 95.5% | 100% | 96.2% | 104% | 98.5% | 97.5% | 99.3% | 97.8% | 103% | 98.6% | 92.2% | 102% | 94% | 94.6% | 95.6% | 96.7% | 93.2% | 101% | 100% | 102% | > 10 µM | > 10 µM | > 10 µM | > 10 µM | > 10 µM | 0 | 0 | 0 | 0 | 0

From the supplement of paper PMC13380429
